Patent publication US11180504B2 (ORCHID PHARMA LTD., priority 2016, dated 2021)
Values after ≈ are worked out from the molar mass of the structure shown. Where two headings read alike, the source gives them in different places.

Key:
[1] = system: carbapenemase producing K. pneumoniae; experiment: MIC by broth micro-dilution (CLSI), carbapenemase producing K. pneumoniae; format: cell-based, Klebsiella pneumoniae
[2] = system: carbapenem sensitive Pseudomonas aeruginosa; experiment: MIC by broth micro-dilution (CLSI), carbapenem sensitive P. aeruginosa; format: cell-based
[3] = system: methicillin-sensitive Staphylococcus aureus; experiment: MIC by broth micro-dilution (CLSI), methicillin-sensitive S. aureus; format: cell-based; conditions: MSSA S. aureus ATCC29213
[4] = system: carbapenem sensitive Escherichia coli; experiment: MIC by broth micro-dilution (CLSI), carbapenem sensitive E. coli; format: cell-based
[5] = Klebsiella pneumoniae, ATCCBAA1705, KPC-2 K. pneumoniae ATCC BAA-1705, read-out: MIC
[6] = Pseudomonas aeruginosa, ATCC27853, Meropenem susceptible P. aeruginosa ATCC27853, read-out: MIC
[7] = Staphylococcus aureus, ATCC 29213 / MSSA, read-out: MIC
[8] = Escherichia coli, ATCC25922, ESBL −ve E. coli ATCC25922, read-out: MIC
[9] = KPC-2 K. pneumoniae ATCC BAA-1705
[10] = Meropenem susceptible P. aeruginosa ATCC27853

SMILES	MIC [1, 5] [µg/mL]	MIC [2, 6] [µg/mL]	MIC [3, 7] [µg/mL]	MIC [4, 8] [µg/mL]	MIC [1, 9] [µg/mL]	MIC [2, 10] [µg/mL]	MIC [3] [µg/mL]	MIC ([4]; ESBL −ve E. coli ATCC25922) [µg/mL]	MIC ([3]; Staphylococcus aureus, ATCC29213|MSSA, read-out: MIC) [µg/mL]
C[C@@H](NC(=O)Cn1cnnn1)[C@H]1C(=O)N2C(C(=O)O)=C(S[C@@H]3CN[C@H](C(=O)N4CC[N+](C)(C)CC4)C3)[C@H](C)[C@H]12 [Example 360, 4-((2S,4S)-((4R,5S,6R)-6-((R)-1-(2-(1H-tetrazol-1-yl)acetamido)ethyl)-2-carboxy-4-methyl-7-oxo-1-azabicyclo[3.2.0]hept-2-en-3-ylthio)pyrrolidine-2-carbonyl)-1,1-dimethylpiperazin-1-ium iodide]	2	1	8	0.5					
C[C@@H](NC(=O)Cn1cnnn1)[C@H]1C(=O)N2C(C(=O)O)=C(S[C@@H]3CN[C@H](C(=O)N4CCC(CNCCN)CC4)C3)[C@H](C)[C@H]12 [Example 443, (4R,5S,6R)-6-((R)-1-(2-(1H-tetrazol-1-yl)acetamido)ethyl)-3-((3S,5S)-5-(4-((2-aminoethylamino)methyl)piperidine-1-carbonyl)pyrrolidin-3-ylthio)-4-methyl-7-oxo-1-azabicyclo[3.2.0]hept-2-ene-2-carboxylic acid]	2 (≈ 3.31 µM)	1 (≈ 1.65 µM)	4 (≈ 6.61 µM)	0.5 (≈ 0.827 µM)					
C[C@@H](NC(=O)Cn1cnnn1)[C@H]1C(=O)N2C(C(=O)O)=C(S[C@@H]3CN[C@H](C(=O)N4C[C@@H]5NCCO[C@@H]5C4)C3)[C@H](C)[C@H]12 [Example 353, (4R,5S,6R)-6-((R)-1-(2-(1H-tetrazol-1-yl)acetamido)ethyl)-4-methyl-3-((3S,5S)-5-((4aS,7aR)-octahydropyrrolo[3,4-b][1,4]oxazine-6-carbonyl)pyrrolidin-3-ylthio)-7-oxo-1-azabicyclo[3.2.0]hept-2-ene-2-carboxylic acid]	2 (≈ 3.47 µM)	16 (≈ 27.8 µM)	16 (≈ 27.8 µM)	0.25 (≈ 0.434 µM)					
C[C@@H](NC(=O)CC(N)=O)[C@H]1C(=O)N2C(C(=O)O)=C(S[C@@H]3CN[C@H](C(=O)N(C)C)C3)[C@H](C)[C@H]12 [Example 268]	4 (≈ 8.56 µM)	32 (≈ 68.4 µM)	8 (≈ 17.1 µM)	2 (≈ 4.28 µM)					
C[C@@H](NC(=O)Cn1nnnc1N(C)C)[C@H]1C(=O)N2C(C(=O)O)=C(S[C@@H]3CN[C@H](C(=O)N(C)C)C3)[C@H](C)[C@H]12 [Example 383, (4R,5S,6R)-6-((R)-1-(2-(5-(dimethylamino)-1H-tetrazol-1-yl)acetamido)ethyl)-3-((3S,5S)-5-(dimethylcarbamoyl)pyrrolidin-3-ylthio)-4-methyl-7-oxo-1-azabicyclo[3.2.0]hept-2-ene-2-carboxylic acid]	4 (≈ 7.47 µM)	> 128	4 (≈ 7.47 µM)	0.25 (≈ 0.467 µM)					
C[C@@H](NC(=O)Cn1cnnn1)[C@H]1C(=O)N2C(C(=O)O)=C(S[C@@H]3CN[C@H](C(=O)N4CC[C@@H](N(C)C)C4)C3)[C@H](C)[C@H]12 [Example 410, (4R,5S,6R)-6-((R)-1-(2-(1H-tetrazol-1-yl)acetamido)ethyl)-3-((3S,5S)-5-((R)-3-(dimethylamino)pyrrolidine-1-carbonyl)pyrrolidin-3-ylthio)-4-methyl-7-oxo-1-azabicyclo[3.2.0]hept-2-ene-2-carboxylic acid]	4 (≈ 7.12 µM)	4 (≈ 7.12 µM)	2 (≈ 3.56 µM)	0.5 (≈ 0.89 µM)					
C[C@@H](NC(=O)Cn1cnnn1)[C@H]1C(=O)N2C(C(=O)O)=C(S[C@@H]3CN[C@H](C(=O)N4CCO[C@H]5CNC[C@H]54)C3)[C@H](C)[C@H]12 [Example 471, (4R,5S,6R)-6-((R)-1-(2-(1H-tetrazol-1-yl)acetamido)ethyl)-4-methyl-3-((3S,5S)-5-((4aR,7aS)-octahydropyrrolo[3,4-b][1,4]oxazine-4-carbonyl)pyrrolidin-3-ylthio)-7-oxo-1-azabicyclo[3.2.0]hept-2-ene-2-carboxylic acid]	2 (≈ 3.47 µM)	4 (≈ 6.95 µM)	2 (≈ 3.47 µM)	0.5 (≈ 0.869 µM)					
C[C@@H](NC(=O)Cn1cnnn1)[C@H]1C(=O)N2C(C(=O)O)=C(S[C@@H]3CN[C@H](C(=O)N4CCC5NCCCC54)C3)[C@H](C)[C@H]12 (single isomer, unassigned) [Example 468]	2 (≈ 3.49 µM)	8 (≈ 13.9 µM)	4 (≈ 6.97 µM)	0.5 (≈ 0.872 µM)					
C[C@@H](NC(=O)Cn1cnnn1)[C@H]1C(=O)N2C(C(=O)O)=C(S[C@@H]3CN[C@H](C(=O)N4CC[C@@H](NC(=O)CCN)C4)C3)[C@H](C)[C@H]12 [Example 492, (4R,5S,6R)-6-((R)-1-(2-(1H-tetrazol-1-yl)acetamido)ethyl)-3-((3S,5S)-5-((R)-3-(3-aminopropanamido)pyrrolidine-1-carbonyl)pyrrolidin-3-ylthio)-4-methyl-7-oxo-1-azabicyclo[3.2.0]hept-2-ene-2-carboxylic acid]	2 (≈ 3.31 µM)	2 (≈ 3.31 µM)	4 (≈ 6.61 µM)	0.5 (≈ 0.827 µM)					
C[C@@H](NC(=O)C(C)(C)n1cnnn1)[C@H]1C(=O)N2C(C(=O)O)=C(S[C@@H]3CN[C@H](C(=O)N(C)C)C3)[C@H](C)[C@H]12 [Example 318, (4R,5S,6R)-3-((3S,5S)-5-(dimethylcarbamoyl)pyrrolidin-3-ylthio)-4-methyl-6-((R) - 1-(2-methyl-2-(1H-tetrazol-1-yl)propanaraido)ethyl)-7-oxo-1-azabicyclop[3.2.0]hept-2-ene-2-carboxylic acid]	128 (≈ 246 µM)	> 128	16 (≈ 30.7 µM)	2 (≈ 3.84 µM)					
C[C@@H](NC(=O)Cn1cnnn1)[C@H]1C(=O)N2C(C(=O)O)=C(S[C@@H]3CN[C@H](C(=O)N4CCC5NCCCC5C4)C3)[C@H](C)[C@H]12 (stereo partly drawn) [Example 487, (4R,5S,6R)-6-((R)-1-(2-(1H-tetrazol-1-yl)acetamidin)ethyl)-3-((3S,5S)-5-(decahydro-1,6-naphthyridine-6-carbonyl)pyrrolidin-3-ylthio)-4-methyl-7-oxo-1-azabicyclo[3.2.0]hept-2-ene-2-carboxylic acid]					1 (≈ 1.7 µM)	8 (≈ 13.6 µM)	2 (≈ 3.4 µM)	0.25 (≈ 0.425 µM)	

Next, values leading:

MIC [1, 5] [µg/mL]	MIC [2, 6] [µg/mL]	MIC [3, 7] [µg/mL]	MIC [4, 8] [µg/mL]	MIC [1, 9] [µg/mL]	MIC [2, 10] [µg/mL]	MIC [3] [µg/mL]	MIC ([4]; ESBL −ve E. coli ATCC25922) [µg/mL]	MIC ([3]; Staphylococcus aureus, ATCC29213|MSSA, read-out: MIC) [µg/mL]	SMILES
2 (≈ 3.32 µM)	1 (≈ 1.66 µM)	4 (≈ 6.64 µM)	0.25 (≈ 0.415 µM)						C[C@@H](NC(=O)Cn1cnnn1)[C@H]1C(=O)N2C(C(=O)O)=C(S[C@@H]3CN[C@H](C(=O)N4C[C@H]5C[C@H](N)C[C@@]5(CN)C4)C3)[C@H](C)[C@H]12 [Example 538, (4R,5S,6R)-6-((R)-1-(2-(1H-tetrazol-1-yl)acetamido)ethyl)-3-((3S,5S)-5-((3aR,5S,6aS)-5-amino-3a-(aminomethyl)octahydro-cyclopenta[c]pyrrole-2-carbonyl)pyrrolidin-3-ylthio)-4-methyl-7-oxo-1-azabicyclo[3.2.0]hept-2-ene-2-carboxylic acid]
				1 (≈ 1.77 µM)	1 (≈ 1.77 µM)	2 (≈ 3.55 µM)	0.125 (≈ 0.222 µM)		C[C@@H](NC(=O)Cn1cnnn1)[C@H]1C(=O)N2C(C(=O)O)=C(S[C@@H]3CN[C@H](C(=O)N4CC[C@@H](N)[C@H]4CO)C3)[C@H](C)[C@H]12 [Example 523, (4R,5S,6R)-6-((R)-1-(2-(1H-tetrazol-1-yl)acetamido)ethyl)-3-((3S,5S)-5-((2S,3R)-3-amino-2-(hydroxymethyl)pyrrolidine-1-carbonyl)pyrrolidin-3-ylthio)-4-methyl-7-oxo-1-azabicyclo[3.2.0]hept-2-ene-2-carboxylic acid]
2 (≈ 3.23 µM)	2 (≈ 3.23 µM)	4 (≈ 6.45 µM)	0.5 (≈ 0.807 µM)						C[C@@H](NC(=O)Cn1cnnn1)[C@H]1C(=O)N2C(C(=O)O)=C(S[C@@H]3CN[C@H](C(=O)N4CC5[C@H](O)[C@H](N)C[C@@]5(CO)C4)C3)[C@H](C)[C@H]12 (stereo partly drawn) [Example 547, (4R,5S,6R)-6-((R)-1-(2-(1H-tetrazol-1-yl)acetamido)ethyl)-3-((3S,5S)-5-((3aS,5R,6S)-5-amino-6-hydroxy-3a-(hydroxymethyl)octahydro-cyclopenta[c]pyrrole-2-carbonyl)pyrrolidin-3-ylthio)-4-methyl-7-oxo-1-azabicyclo-[3.2.0]-hept-2-ene-2-carboxylic acid]
2 (≈ 3.75 µM)	8 (≈ 15 µM)		0.25 (≈ 0.469 µM)					1 (≈ 1.88 µM)	C[C@@H](NC(=O)Cn1cnnn1)[C@H]1C(=O)N2C(C(=O)O)=C(S[C@@H]3CN[C@H](C(=N)N4CC[C@@H](N)C4)C3)[C@H](C)[C@H]12 [Example 550]
				1 (≈ 1.74 µM)	0.5 (≈ 0.872 µM)	2 (≈ 3.49 µM)	0.125 (≈ 0.218 µM)		C[C@@H](NC(=O)Cn1cnnn1)[C@H]1C(=O)N2C(C(=O)O)=C(S[C@@H]3CN[C@H](C(=O)N4CCC5(CCNC5)C4)C3)[C@H](C)[C@H]12 (single isomer, unassigned) [Example 493]
2 (≈ 3.32 µM)	4 (≈ 6.64 µM)	4 (≈ 6.64 µM)	0.25 (≈ 0.415 µM)						C[C@@H](NC(=O)Cn1cnnn1)[C@H]1C(=O)N2C(C(=O)O)=C(S[C@@H]3CN[C@H](C(=O)N4CC5CCN(CCN)C5C4)C3)[C@H](C)[C@H]12 (stereo partly drawn) [Example 577, (4R,5S,6R)-6-((R)-1-(2-(1H-tetrazol-1-yl)acetamido)ethyl)-3-((3S,5S)-5-(1-(2-aminoethyl)octahydropyrrolo[3,4-b]pyrrole-5-carbonyl)pyrrolidin-3-ylthio)-4-methyl-7-oxo-1-azabicyclo[3.2.0]hept-2-ene-2-carboxylic acid]
2 (≈ 3.55 µM)	2 (≈ 3.55 µM)	2 (≈ 3.55 µM)	0.25 (≈ 0.444 µM)						C[C@@H](NC(=O)Cn1cnnn1)[C@H]1C(=O)N2C(C(=O)O)=C(S[C@@H]3CN[C@H](C(=O)N4CCC(N)(CO)C4)C3)[C@H](C)[C@H]12 (single isomer, unassigned) [Example 496]
